Measurements as given in patent publication US4094979A, “Orally active cephalosporins” (American Home Products Corporation, priority 1976, dated 1978).
Converted amounts (≈) assume the structure as drawn. Counter-ions that a name gives are not always drawn.

Columns and labels:
[1] = tested on: E. Coli (920); test: oral antibacterial activity in intraperitoneally infected CD-1 mice; type: in vivo
Experimental: (§1) The oral antibacterial activity of the compounds of this invention was establihsed by intraperitoneally infecting four groups of 10 male mice CD-1 strain weighing 17-19 grams with 0.5 milliliter of a standardized suspension of bacterium in 5 percent gastric mucin. The animals were then randomized and at 6 hours post infection a single dose of the antibacterial compound being tested was given orally at 7.2, 3.6, 1.8 and 0.9 mg/mouse to each group of 10 mice.
(§2) Testing against E. Coli (920-LD95), as a general representative of gram-negative bacteria, was followed by testing against Proteus vulgaris (347) as an example of a special application against a gram negative bacterium. In the oral anti-bacterial activity test, an arbitrary maximum dose is set at 7.2 milligrams per mouse below which activity must be found before a compound is considered orally active. The arbitrary maximum dose of 7.2 milligrams per mouse represents a practical dose limit in terms of the potency of known orally active antibacterial agents.

[2] = tested on: E. Coli (E-2); test: as above; type: in vivo
Experimental: as §1, §2

[3] = tested on: E. Coli (E-3); test: as above; type: in vivo
Experimental: as §1, §2

[4] = tested on: E. Coli W-102; test: as above; type: in vivo; details: E. Coli W-102, at 7.2 mg/mouse
Experimental: as §1, §2

[5] = tested on: Proteus vulgaris (347); test: as above; type: in vivo
Experimental: as §1, §2

[6] = tested on: Kl Pn; test: as above; type: in vivo; details: P.O., single dose 6 hours post infection, 14 days
Experimental: as §1, §2

[7] = tested on: Pr Mi; test: as above; type: in vivo; details: P.O., single dose 6 hours post infection, 14 days
Experimental: as §1, §2

[8] = tested on: St Au (Smith); test: as above; type: in vivo
Experimental: as §1, §2

[9] = tested on: St Py; test: as above; type: in vivo; details: P.O., single dose 6 hours post infection, 14 days
Experimental: as §1, §2

[10] = tested on: St Au 6538P; test: in vitro agar serial dilution, MIC; type: cell-based; details: strain 6538P
[11] = tested on: St Au Smith; test: in vitro agar serial dilution, MIC; type: cell-based; details: strain Smith
[12] = tested on: St Au CHP; test: in vitro agar serial dilution, MIC; type: cell-based; details: strain CHP
[13] = tested on: St Au 53-180; test: in vitro agar serial dilution, MIC; type: cell-based; details: strain 53-180
[14] = tested on: My Sm 10143; test: in vitro agar serial dilution, MIC; type: cell-based; details: strain 10143
[15] = tested on: Ne Ca 819; test: in vitro agar serial dilution, MIC; type: cell-based; details: strain 819
[16] = tested on: Ps Ae 10145; test: in vitro agar serial dilution, MIC; type: cell-based; details: strain 10145
[17] = tested on: Es Co 9637; test: in vitro agar serial dilution, MIC; type: cell-based; details: strain 9637
[18] = tested on: Es In 65-1; test: in vitro agar serial dilution, MIC; type: cell-based; details: strain 65-1
[19] = tested on: Sa Pa 11737; test: in vitro agar serial dilution, MIC; type: cell-based; details: strain 11737
[20] = tested on: En Ae 13048; test: in vitro agar serial dilution, MIC; type: cell-based; details: strain 13048
[21] = tested on: Kl Pn 10031; test: in vitro agar serial dilution, MIC; type: cell-based; details: strain 10031
[22] = tested on: Pr Mi 9921; test: in vitro agar serial dilution, MIC; type: cell-based; details: strain 9921
[23] = E. Coli, P.O., single dose 6 hours post infection, 14 days
[24] = Pr Bu, P.O., single dose 6 hours post infection, 14 days
[25] = P.O., single dose 6 hours post infection, 14 days

Cn1nnnc1SCC1=C(C(=O)O)N2C(=O)C(NC(=O)CCN3C(=O)CSC3=S)C2SC1 (stereo not drawn)
CD50 ([1]; E. Coli (920), oral): 3.05 mg/mouse | CD50 [2]: 3.30 mg/mouse | CD50 [3]: 2.12 mg/mouse | oral antibacterial activity [4]: inactive | CD50 ([5]; Pr vulgaris (347), oral): 5.90 mg/mouse

CC1=C(C(=O)O)N2C(=O)[C@@H](NC(=O)[C@H](N)C3=CCC=CC3)[C@H]2SC1 [Cephradine, reference compound]
CD50 [1, 23]: 2.27 mg/mouse | CD50 [6]: 2.42 mg/mouse | CD50 [7]: 2.25 mg/mouse | CD50 [5, 24]: 6.52 mg/mouse | CD50 [8, 25]: 0.140 mg/mouse | CD50 [9]: < 0.45 mg/mouse

Cn1nnnc1SCC1=C(C(=O)O)N2C(=O)C(NC(=O)CCN3C(=O)CSC3=S)C2SC1 (stereo not drawn) [Ex. 1-Na salt]
CD50 [1, 23]: 2.35 mg/mouse | CD50 [6]: 1.36 mg/mouse | CD50 [7]: 4.49 mg/mouse | CD50 [5, 24]: 5.97 mg/mouse | CD50 [8, 25]: 2.73 mg/mouse | CD50 [9]: > 3.6 mg/mouse

Cn1nnnc1SCC1=C(C(=O)O)N2C(=O)C(NC(=O)CCN3C(=O)CSC3=S)C2SC1 (stereo not drawn) [Example 1 acid]
MIC [10]: 1.95 µg/mL (≈ 3.78 µM) | MIC [11]: 1.95 µg/mL (≈ 3.78 µM) | MIC [12]: 7.81 µg/mL (≈ 15.1 µM) | MIC [13]: 3.9 µg/mL (≈ 7.56 µM) | MIC [14]: 250 µg/mL (≈ 485 µM) | MIC [15]: 31.3 µg/mL (≈ 60.7 µM) | MIC [16]: 250 µg/mL (≈ 485 µM) | MIC [17]: 3.9 µg/mL (≈ 7.56 µM) | MIC [18]: 62.5 µg/mL (≈ 121 µM) | MIC [19]: 0.97 µg/mL (≈ 1.88 µM) | MIC [20]: 250 µg/mL (≈ 485 µM) | MIC [21]: 3.9 µg/mL (≈ 7.56 µM) | MIC [22]: 0.97 µg/mL (≈ 1.88 µM) | CD50 ([1]; E. Coli (920), buffered to pH 4.9 in aqueous solution): 2.97 mg/mouse | CD50 ([5]; Pr vulgaris (Pr-347), buffered to pH 4.9 in aqueous solution): 5.97 mg/mouse | CD50 ([8]; buffered to pH 4.9 in aqueous solution): 2.73 mg/mouse
